Results from US20140079717A1, “Compositions and Methods to Prevent Cell Transformation and Cancer Metastasis” (CORNELL UNIVERSITY, priority 2011, published 2014).

Key:
MDAMB231 cells [1] = test: Shedding of MVs by MDAMB231 cells, immunoblot of flotillin-2 and tTG in MV lysates; assay type: cell-based, human; settings: MDAMB231 cells treated with inhibitor
Description: FIG. 39. Serum-starved MDAMB231 cells treated without or with the tTG inhibitors T101 and MDC (left panel), transfected with either control siRNA (siCont) or two distinct tTG siRNAs (siTG-1 and siTG-2) (middle panel), or treated without or with the inhibitors of classical secretion, BFA and Exo1 (right panel), were lysed (WCLs) and the MVs released into the medium by the cells were also collected and lysed. The extracts were immunoblotted with antibodies against tTG, the MV-marker flotillin-2, and the cytosolic-specific-marker IκBα.
For each of the experiments that used MV preparations, the conditioned medium from 5.0×10^6 serum-starved MDAMB231 cells or U87 cells (which is the equivalent of two nearly confluent 150 MM dishes of either of these cell lines) were collected and the MVs isolated from the medium as previously described. […]
The protein concentrations of the whole cell lysates (WCLs) were determined using the Bio-Rad DC protein assay, while the MV lysates were normalized for comparison by isolating them from the conditioned medium of 5.0×10^6 serum-starved MDAMB231 cells or U87 cells for each of the experimental conditions assayed, and then lysing in 250 μl of cell lysis buffer. […] The primary antibodies were detected with horseradish peroxidase-conjugated secondary antibodies (Amersham Biosciences) followed by exposure to ECL reagent.

MDAMB231 cells [2] = test: MV formation by MDAMB231 cells, immunofluorescence with tTG antibody; assay type: cell-based, human; settings: serum-starved MDAMB231 cells treated with inhibitor
Method: FIG. 38. Serum-starved MDAMB231 cells treated without or with T101, MDC, BFA, or Exo1, were immuno-stained with a tTG antibody. Shown are representative images of the cells exposed to the various inhibitors. Cells forming MVs are denoted with arrows.
(§1) The MDAMB231, U87, MCF10A, and HeLa cell lines were grown in RPMI 1640 medium containing 10% fetal bovine serum, while the NIH3T3 cell line was grown in DMEM medium containing 10% calf serum. Expression constructs were transfected into cells using Lipofectamine, whereas the control and tTG siRNAs were introduced into cells with Lipofectamine 2000. As indicated, cells were incubated with serum-free medium containing combinations of 0.1 μg/ml EGF, 100 μM MDC, 10 μM T101, 10 μM BFA, and 10 μM Exo1. To mitotically arrest MDAMB231 cells, plates of cells were treated with 10 μg/ml mitomycin-C for 2 hours, before rinsing the solution away and allowing the cells to recover in growth medium (RPMI-1640 medium containing 10% FBS) for a day.
Cells were fixed with 3.7% paraformaldehyde and then some samples were permeabilized with phosphate-buffered saline (PBS) containing 0.1% Triton X-100. Permeabilized and non-permeabilized samples were incubated with a tTG antibody, and then incubated with Oregon green 488-conjugated secondary antibody. Rhodamine-conjugated phalloidin was used to stain actin and DAPI was used to stain nuclei. The cells were visualized by fluorescent microscopy and the images were captured and processed using IPLABS.

[3] = system: HeLa cervical carcinoma cells; test: MV formation in HeLa cells, rhodamine-phalloidin labeling; assay type: cell-based, human; settings: serum-starved HeLa cells, EGF stimulation
Method: FIG. 2. Quantification of MV production by various cell lines cultured under serum-starved or EGF-stimulated conditions. Cells generating MVs were detected by labeling the samples with rhodamine-conjugated phalloidin. The data shown represents the mean±s.d. from three independent experiments.
FIG. 3. Images of cells from the experiment performed in FIG. 2. Some of the MVs are denoted with arrows.
as §1

NIH3T3 fibroblasts = test: Anchorage-independent growth assay (soft agar) on NIH3T3 fibroblasts incubated with MVs; assay type: cell-based; settings: NIH3T3 cells, U87 cell-derived MVs treated with AG1478
Method: FIG. 21. Anchorage-independent growth assays were performed on fibroblasts incubated with MDAMB231 cell-derived MVs treated without or with T101, the RGD-peptide, or the control RGE-peptide. Data represents the mean±s.d. from at least three independent experiments.
FIG. 34. MDAMB231 cell-derived MVs transform recipient MCF10A mammary epithelial cells. Anchorage-independent growth assays were performed on NIH3T3 fibroblasts incubated with U87 cell-derived MVs treated without or with the EGF receptor inhibitor AG1478. The culturing medium (including the MVs, T101, and AG1478) for the soft agar assays performed was replenished every third day for 12 days, at which time the colonies that formed were counted. […]
Parental NIH3T3 cells or MCF10A cells incubated without or with MVs derived from 5.0×10^6 MDAMB231 cells or U87 cells, or NIH3T3 cells stably overexpressing the vector-control, wild-type tTG, or Cdc42 F28L, were plated at a density of 7×10^3 cells/ml in medium containing 0.3% agarose, without or with various inhibitors as indicated, onto underlays composed of growth medium containing 0.6% agarose in six-well dishes. The soft agar cultures were re-fed (including the addition of freshly prepared MVs and treatments with various inhibitors as indicated) every third day for 12 days, at which time the colonies that formed were counted. […]

[4] = system: NIH3T3 fibroblasts stably overexpressing Myc-tagged tTG; test: Cell death assay on NIH3T3 fibroblasts stably overexpressing Myc-tTG; assay type: cell-based; settings: serum-free medium, cells treated with MDC
Method: FIG. 23. Cell death assays were performed on the NIH3T3 stable cell lines maintained in serum-free medium that was treated with T101, MDC, or 2% CS-medium, or was untreated. Data represents the mean±s.d. from at least three independent experiments.
NIH3T3 cells or MCF10A cells were plated in each well of a 6-well dish and then cultured in medium containing 2% CS or serum-free medium supplemented without or with MVs derived from 5.0×10^6 MDAMB231 cells or U87 cells, and without or with MDC or T101, as indicated. Two days later the cultures were fixed and stained with DAPI for viewing by fluorescence microscopy. Cells undergoing apoptosis were identified by nuclear condensation or blebbing and the percentage of cell death was determined by calculating the ratio of apoptotic to total cells for each condition. These experiments were conducted at least three times and the results from each experiment were averaged together and graphed.

tTG = biological target: T1, tTG (Homo sapiens, UniProt P21980); test: Transamidation activity of intact MDAMB231 cell-derived MVs (incorporation of BPA into casein); assay type: biochemical; settings: pre-treatment of intact MDAMB231 cell-derived MVs with inhibitor
T1 construct: endogenous in cells; host or cells: microvesicles shed by serum-starved MDAMB231 (and U87) cells
T1 sequence (P21980 1-687): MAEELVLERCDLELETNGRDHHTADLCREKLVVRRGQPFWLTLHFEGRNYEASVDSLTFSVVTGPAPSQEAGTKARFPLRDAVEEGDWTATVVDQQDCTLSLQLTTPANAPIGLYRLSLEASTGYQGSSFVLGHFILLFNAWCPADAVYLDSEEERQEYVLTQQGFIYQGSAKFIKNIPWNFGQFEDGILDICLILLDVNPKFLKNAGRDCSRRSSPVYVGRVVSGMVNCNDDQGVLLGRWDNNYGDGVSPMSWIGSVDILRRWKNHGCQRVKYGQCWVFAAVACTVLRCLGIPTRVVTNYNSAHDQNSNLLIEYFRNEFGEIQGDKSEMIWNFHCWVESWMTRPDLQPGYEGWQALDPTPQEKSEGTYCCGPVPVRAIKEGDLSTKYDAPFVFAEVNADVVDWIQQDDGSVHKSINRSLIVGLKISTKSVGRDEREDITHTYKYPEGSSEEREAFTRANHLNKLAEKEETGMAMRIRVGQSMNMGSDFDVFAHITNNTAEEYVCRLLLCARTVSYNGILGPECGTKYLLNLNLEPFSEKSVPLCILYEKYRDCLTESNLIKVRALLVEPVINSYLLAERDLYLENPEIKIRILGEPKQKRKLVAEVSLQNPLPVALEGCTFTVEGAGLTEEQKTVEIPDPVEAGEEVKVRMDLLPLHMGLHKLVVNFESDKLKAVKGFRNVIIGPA
Method: FIG. 17. Whole cell lysates (WCLs) of serum-starved MDAMB231 cells, as well as intact MVs generated by these cells treated without or with the tTG inhibitors T101 (cell-impermeable) or MDC (cell-permeable), were assayed for transamidation activity as readout by the incorporation of BPA into casein. The samples were then immunoblotted with antibodies against tTG, flotillin-2, and IκBα.
The transamidation activity in whole cell extracts was readout by the incorporation of BPA into lysate proteins as previously described, whereas the transamidation activity of recombinant tTG (0.1 μM) exposed to increasing concentrations of T101 was determined using a spectrophotometric assay. The transamidation activity associated with MVs was readout by incubating equal amounts (75 μl) of each MV sample in a buffer containing 40 mM N′N-dimethyl casein, 2 mM BPA, 40 mM CaCl2, and 40 mM dithiothreitol for 15 minutes. The reaction was stopped by the addition of Laemmli sample buffer followed by boiling. The reactions were then resolved by SDS-PAGE and the proteins transferred to polyvinylidene difluoride membranes. […]

MDAMB231 cells [5] = test: Tumor formation assay in nude mice; assay type: in vivo; settings: cells exposed to mitomycin-C before subcutaneous injection into nude mice
Method: FIG. 25. Tumor formation assays were performed in which 5×10^5 mitotically-arrested (using mitomycin-C) MDAMB231 cells (denoted as Mito-C-MDAMB231) expressing either control siRNA (siCont) or tTG siRNAs (denoted as siTG-1 or siTG-2) were subcutaneously injected singly, or combined with 5×10^5 NIH3T3 fibroblasts, into nude mice. As controls, untreated MDAMB231 and NIH3T3 cells were injected into nude mice.
as §1, with “To mitotically arrest MDAMB231 cells, plates of cells were treated with 10 μg/ml mitomycin-C for 2 hours, before rinsing the solution away and allowing the cells to recover in growth medium (RPMI-1640 medium containing 10% FBS) for a day.” left out
5×10^5 mitotically arrested (using mitomycin-C) MDAMB231 cells stably expressing control or tTG siRNAs were combined with 5×10^5 NIH3T3 fibroblasts and growth factor-reduced Matrigel (BD Biosciences) to achieve 30% Matrigel in the final solution. […] After a month, the animals were sacrificed and the resulting tumors that formed for each experimental condition were excised and counted. […]

Compound	effect on shedding of MVs (flotillin-2 and tTG in isolated MVs) (MDAMB231 cells [1])	effect on MV formation (MDAMB231 cells [2])	further results
COC(=O)c1ccccc1NC(=O)c1ccc(F)cc1 [ExoI]	nor was it affected	not sensitive	
epidermal growth factor [EGF, growth factor used to stimulate cells]			MV formation [3]: induced
COc1cc2ncnc(Nc3cccc(Cl)c3)c2cc1OC [AG1478]			anchorage-independent growth advantage imparted by U87 cell-derived MVs (NIH3T3 fibroblasts): insensitive
CN(C)c1cccc2c(S(=O)(=O)NCCCCCN)cccc12 [MDC, monodansylcadaverine]		had no effect	resistance to serum-deprivation-induced apoptosis [4]: ablated; crosslinking activity associated with MVs (levels of BPA-labeled casein) (tTG): greatly diminished
C[C@H]1CCC/C=C/[C@@H]2C[C@H](O)C[C@H]2[C@H](O)/C=C/C(=O)O1 [BFA, brefelden A]	nor was it affected	not sensitive	
CO[C@@]12[C@H](COC(N)=O)C3=C(C(=O)C(C)=C(N)C3=O)N1C[C@@H]1N[C@@H]12 [mitomycin-C]			ability of MDAMB231 cells to form tumors (MDAMB231 cells [5]): inhibited
